Experimental data taken from patent publication US9611267B2, “Substituted tricyclic compounds as FGFR inhibitors” (Incyte Corporation, priority 2012, dated 2017).

How the values were obtained:
Assay type in all cases: biochemical
FGFR1 = FGFR1 (Homo sapiens (Human), UniProt P11362); test: FGFR enzymatic assay (FRET peptide phosphorylation), FGFR1; conditions: FGFR1 enzyme 0.02 nM, ATP 210 μM
Method in brief: (§1)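 IC50 values were obtained from variable-slope sigmoidal dose-response fitting of a FRET read-out of peptide phosphorylation. The buffer, described for FGFR3, was 50 mM HEPES pH 7.5 with MgCl2, EGTA, Tween-20 and DTT.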

FGFR2 = FGFR2 (Homo sapiens (Human), UniProt P21802); test: FGFR enzymatic assay (FRET peptide phosphorylation), FGFR2; conditions: FGFR2 enzyme 0.01 nM, ATP 100 μM
Method in brief: as §1

FGFR3 = FGFR3 (Homo sapiens (Human), UniProt P22607); test: FGFR enzymatic assay (FRET peptide phosphorylation), FGFR3; conditions: FGFR3 enzyme (Millipore), ATP 140 μM
Method in brief: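 After 5-10 min pre-incubation of FGFR3 with serially diluted compound in pH 7.5 HEPES/MgCl2/EGTA/DTT buffer, the reaction proceeded 1 hr at 25° C. Phosphorylated peptide was detected by FRET, and IC50 was fitted with a variable-slope sigmoid.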

Measured: IC50

Chain of FGFR3 (P22607 23-806): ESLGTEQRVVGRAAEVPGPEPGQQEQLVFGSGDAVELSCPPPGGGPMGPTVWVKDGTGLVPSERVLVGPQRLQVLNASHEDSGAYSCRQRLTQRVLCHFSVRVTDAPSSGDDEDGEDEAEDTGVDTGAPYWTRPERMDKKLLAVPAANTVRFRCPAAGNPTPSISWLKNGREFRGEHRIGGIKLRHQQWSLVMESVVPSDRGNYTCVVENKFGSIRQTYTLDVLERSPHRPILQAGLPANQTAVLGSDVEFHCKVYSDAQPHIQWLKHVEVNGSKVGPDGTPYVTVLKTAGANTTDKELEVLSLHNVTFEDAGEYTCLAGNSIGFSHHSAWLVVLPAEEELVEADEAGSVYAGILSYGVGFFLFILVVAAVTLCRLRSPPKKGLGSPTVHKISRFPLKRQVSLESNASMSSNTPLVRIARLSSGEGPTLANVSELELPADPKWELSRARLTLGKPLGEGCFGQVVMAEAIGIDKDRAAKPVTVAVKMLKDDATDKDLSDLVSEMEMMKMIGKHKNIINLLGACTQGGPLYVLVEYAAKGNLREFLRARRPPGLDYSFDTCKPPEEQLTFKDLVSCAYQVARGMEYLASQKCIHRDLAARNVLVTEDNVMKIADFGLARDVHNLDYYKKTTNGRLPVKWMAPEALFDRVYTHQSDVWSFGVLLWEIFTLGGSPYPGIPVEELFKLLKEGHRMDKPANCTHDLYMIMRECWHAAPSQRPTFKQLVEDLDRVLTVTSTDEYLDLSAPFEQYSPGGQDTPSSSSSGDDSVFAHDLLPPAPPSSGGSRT
Chain of FGFR1 (P11362 22-822): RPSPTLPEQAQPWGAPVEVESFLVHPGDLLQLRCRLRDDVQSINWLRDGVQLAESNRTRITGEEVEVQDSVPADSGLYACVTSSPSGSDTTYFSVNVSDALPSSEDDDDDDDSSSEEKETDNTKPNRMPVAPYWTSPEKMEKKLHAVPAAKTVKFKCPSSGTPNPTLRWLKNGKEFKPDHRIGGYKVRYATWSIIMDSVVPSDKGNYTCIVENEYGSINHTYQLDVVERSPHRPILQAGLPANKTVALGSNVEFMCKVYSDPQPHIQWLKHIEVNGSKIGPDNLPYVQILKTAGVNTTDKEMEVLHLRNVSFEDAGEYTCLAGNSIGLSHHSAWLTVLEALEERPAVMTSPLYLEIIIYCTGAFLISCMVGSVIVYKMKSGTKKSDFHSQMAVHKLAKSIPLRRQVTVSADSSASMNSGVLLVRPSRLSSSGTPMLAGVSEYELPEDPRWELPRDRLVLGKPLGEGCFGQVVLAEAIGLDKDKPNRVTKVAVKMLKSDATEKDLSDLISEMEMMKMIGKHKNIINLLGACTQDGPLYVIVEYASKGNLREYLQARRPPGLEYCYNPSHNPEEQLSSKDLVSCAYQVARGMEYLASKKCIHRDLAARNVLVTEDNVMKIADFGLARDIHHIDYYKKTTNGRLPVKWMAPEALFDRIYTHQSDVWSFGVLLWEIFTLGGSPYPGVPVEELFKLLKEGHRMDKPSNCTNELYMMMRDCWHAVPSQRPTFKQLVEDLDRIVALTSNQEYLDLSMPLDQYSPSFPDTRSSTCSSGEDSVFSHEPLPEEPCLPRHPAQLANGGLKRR
Chain of FGFR2 (P21802 22-821): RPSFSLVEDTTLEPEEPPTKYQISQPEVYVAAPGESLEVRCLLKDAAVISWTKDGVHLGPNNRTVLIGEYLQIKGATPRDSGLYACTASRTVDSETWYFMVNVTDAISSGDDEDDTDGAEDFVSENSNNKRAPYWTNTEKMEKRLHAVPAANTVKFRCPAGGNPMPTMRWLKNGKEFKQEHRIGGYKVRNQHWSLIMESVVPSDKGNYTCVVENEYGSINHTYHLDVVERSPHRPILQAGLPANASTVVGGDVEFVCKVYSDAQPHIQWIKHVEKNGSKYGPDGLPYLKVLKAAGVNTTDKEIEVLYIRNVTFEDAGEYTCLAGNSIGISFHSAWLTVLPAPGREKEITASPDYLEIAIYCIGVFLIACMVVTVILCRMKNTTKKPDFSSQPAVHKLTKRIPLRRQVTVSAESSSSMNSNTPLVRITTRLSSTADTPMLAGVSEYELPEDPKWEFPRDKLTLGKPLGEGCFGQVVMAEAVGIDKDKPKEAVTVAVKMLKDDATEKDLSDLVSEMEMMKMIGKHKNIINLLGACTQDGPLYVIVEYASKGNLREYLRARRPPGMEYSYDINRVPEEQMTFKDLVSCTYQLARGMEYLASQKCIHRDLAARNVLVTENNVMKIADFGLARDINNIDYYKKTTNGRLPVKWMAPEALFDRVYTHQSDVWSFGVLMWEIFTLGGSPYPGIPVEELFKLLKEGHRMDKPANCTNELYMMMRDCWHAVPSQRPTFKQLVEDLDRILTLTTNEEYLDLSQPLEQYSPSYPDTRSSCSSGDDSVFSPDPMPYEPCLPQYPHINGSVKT

COc1cc(OC)cc(N2Cc3cnc4[nH]c(C(=O)N5CCC(O)C5)cc4c3N(C)C2=O)c1 (stereo not drawn) [Example 21, 3-(3,5-Dimethoxyphenyl)-8-[(3-hydroxypyrrolidin-1-yl)carbonyl]-1-methyl-1,3,4,7-tetrahydro-2H-pyrrolo[3′,2′:5,6]pyrido[4,3-d]pyrimidin-2-one]
< 100 nM: all assays above

COc1cc(OC)c(F)c(N2Cc3cnc4[nH]ncc4c3N(CCc3ccccn3)C2=O)c1F [Example 169, 3-(2,6-Difluoro-3,5-dimethoxyphenyl)-1-(2-pyridin-2-ylethyl)-1,3,4,7-tetrahydro-2H-pyrazolo[4′,3′:5,6]pyrido[4,3-d]pyrimidin-2-one]
< 100 nM: all assays above

COc1cc(OC)c(F)c(N2Cc3cnc4[nH]ncc4c3N(C[C@H]3CCCO3)C2=O)c1F [Example 166, 3-(2,6-Difluoro-3,5-dimethoxyphenyl)-1-[(2R)-tetrahydrofuran-2-ylmethyl]-1,3,4,7-tetrahydro-2H-pyrazolo[4′,3′:5,6]pyrido[4,3-d]pyrimidin-2-one]
< 100 nM: all assays above

COc1cc(OC)c(F)c(N2Cc3cnc4[nH]c(CCCN5CCOCC5)cc4c3N(C)C2=O)c1F [Example 117, 3-(2,6-difluoro-3,5-dimethoxyphenyl)-1-methyl-8-(3-morpholin-4-ylpropyl)-1,3,4,7-tetrahydro-2H-pyrrolo[3′,2′:5,6]pyrido[4,3-d]pyrimidin-2-one]
< 100 nM: all assays above

COc1cc(OC)cc(N2Cc3cnc4[nH]c(C5CCN(C)CC5)cc4c3N(C)C2=O)c1 [Example 18, 3-(3,5-Dimethoxyphenyl)-1-methyl-8-(1-methylpiperidin-4-yl)-1,3,4,7-tetrahydro-2H-pyrrolo[3′,2′:5,6]pyrido[4,3-d]pyrimidin-2-one]
< 100 nM: all assays above

CCN1C(=O)N(c2c(F)c(OC)cc(OC)c2F)Cc2cnc3[nH]c(CN4CCN(C)CC4)cc3c21 [Example 127, 3-(2,6-difluoro-3,5-dimethoxyphenyl)-1-ethyl-8-[(4-methylpiperazin-1-yl)methyl]-1,3,4,7-tetrahydro-2H-pyrrolo[3′,2′:5,6]pyrido[4,3-d]pyrimidin-2-one]
< 100 nM: all assays above

COc1cc(OC)c(F)c(N2Cc3cnc4c(c3N(c3ncccc3Cl)C2=O)CC(=O)N4)c1F [Example 147, 1-(3-chloropyridin-2-yl)-3-(2,6-difluoro-3,5-dimethoxyphenyl)-3,4,7,9-tetrahydro-1H-pyrrolo[3′,2′:5,6]pyrido[4,3-d]pyrimidine-2,8-dione]
< 100 nM: all assays above

COc1cc(OC)c(F)c(N2Cc3cnc4[nH]c(CCN5CCN(C)CC5)cc4c3N(c3cccc(F)c3)C2=O)c1F [Example 228, 3-(2,6-difluoro-3,5-dimethoxyphenyl)-1-(3-fluorophenyl)-8-[2-(4-methylpiperazin-1-yl)ethyl]-1,3,4,7-tetrahydro-2H-pyrrolo[3′,2′:5,6]pyrido[4,3-d]pyrimidin-2-one]
< 100 nM: all assays above

COc1cc(OC)c(F)c(N2Cc3cnc4[nH]ncc4c3N(CCc3cnccn3)C2=O)c1F [Example 168, 3-(2,6-Difluoro-3,5-dimethoxyphenyl)-1-(2-pyrazin-2-ylethyl)-1,3,4,7-tetrahydro-2H-pyrazolo[4′,3′:5,6]pyrido[4,3-d]pyrimidin-2-one]
< 100 nM: all assays above

COc1cc(OC)c(F)c(N2Cc3cnc4[nH]c(C(=O)N5CCOCC5)cc4c3N(C)C2=O)c1F [Example 41, 3-(2,6-Difluoro-3,5-dimethoxyphenyl)-1-methyl-8-(morpholin-4-ylcarbonyl)-1,3,4,7-tetrahydro-2H-pyrrolo[3′,2′:5,6]pyrido[4,3-d]pyrimidin-2-one]
< 100 nM: all assays above

COc1cc(OC)c(Cl)c(N2Cc3cnc4[nH]ncc4c3N(c3cnn(C)c3)C2=O)c1F [Example 145, 3-(2-chloro-6-fluoro-3,5-dimethoxyphenyl)-1-(1-methyl-1H-pyrazol-4-yl)-1,3,4,7-tetrahydro-2H-pyrazolo[4′,3′:5,6]pyrido[4,3-d]pyrimidin-2-one]
< 100 nM: all assays above

CCN1C(=O)N(c2c(F)c(OC)cc(OC)c2F)Cc2cnc3[nH]c(Cn4ccccc4=O)cc3c21 [Example 219, 3-(2,6-difluoro-3,5-dimethoxyphenyl)-1-ethyl-8-[(2-oxopyridin-1(2H)-yl)methyl]-1,3,4,7-tetrahydro-2H-pyrrolo[3′,2′:5,6]pyrido[4,3-d]pyrimidin-2-one]
< 100 nM: all assays above

COc1cc(OC)c(F)c(N2Cc3cnc4[nH]ncc4c3N(Cc3ccccn3)C2=O)c1F [Example 86, 3-(2,6-difluoro-3,5-dimethoxyphenyl)-1-(pyridin-2-ylmethyl)-1,3,4,7-tetrahydro-2H-pyrazolo[4′,3′:5,6]pyrido[4,3-d]pyrimidin-2-one]
< 100 nM: all assays above
